Test results published in patent US7745390B2, “Antimicrobial peptides” (priority 2005, dated 2010).
Bridge positions count the residues as written; N and C are the ends. Square brackets hold non-standard residues; d marks the D form. Ends that are not written are not given here. Peptide text beside a SMILES is read from it.

Legend:
B. cereus = format: cell-based; details: pH 7.2
Protocol: (§1) The experiments described above characterizing the activity of granulysin peptides G1-G18 relied on counting bacterial colonies on plates. This assay is quite labor intensive and would not allow evaluation of many different compounds on a number of different microbes. Therefore, we optimized an assay in which the entire procedure could be completed in a single microtiter well. Briefly, peptides are diluted in 10 mM phosphate buffer, pH 7.2 supplemented with 0.03% LB (J. Sambrook, D. W. Russell, Molecular Cloning: A Laboratory Manual (Cold Spring Harbor Laboratory Press, New York, ed. 3, 2001) pg. A2.2, Retrieved from http://openwetware.org/wiki/LB) and 25 μl is added to microtiter wells. Bacteria (25 μl) are added (˜5×10^6 colony forming units/ml) in the same buffer. After a 3-hour incubation at 37° C., 150 μl of LB is added and the plates are incubated overnight. The OD at 600 nm is read on an ELISA plate reader. The minimum inhibitory concentration (MIC) is the lowest concentration allowing no bacterial growth. The IC50 is the concentration of peptide that results in 50% growth compared to the medium.
(§2) We now describe additional peptides and their activity. The peptides have been designed, synthesized, and have been tested for lysis of E. coli and S. typhimurium (gram negative bacteria), B. cereus (gram positive bacterium). Results are shown in Table 2 along with the amino acid sequence of the peptide. Changes from the naturally occurring sequence are underlined. In general, the desired result is lysis of bacteria at low concentration (<1 μM).
(§3) In Table 2, Columns 2-7 are the MIC and IC50 (concentration required for 50% inhibition of growth) for each organism (E. coli, Salmonella, and B. cereus). The MIC (minimum inhibitory concentration) was determined as described above, in a multiwell plate assay. […] L-isomer amino acids are designated by capital letters while D-isomer amino acids are designated by lower case letters.

E. coli DH5a = format: cell-based; details: DH5a, pH 7.2
Protocol: as §1, §2, §3

Salmonella = format: cell-based, S. typhimurium; details: pH 7.2
Protocol: as §1, §2, §3

Compound	B. cereus MIC (B. cereus) [µM]	IC50 (B. cereus) [µM]	E. coli DH5a MIC (E. coli DH5a) [µM]	IC50 (E. coli DH5a) [µM]	IC50 (Salmonella) [µM]	Salmonella MIC (Salmonella) [µM]
QRSVSRPPTRVSRTGRSRW [Peptide G13.11, QRSVSRPPTRVSRTGRSRW]	>10	> 10	5.75	2.72	> 10	>10
RDVSRRFMRRGRDVSRRFMRR [Peptide G11.38]	1.4	0.89	0.7	0.42	0.82	1.35
KKVSKKFMKKGSKKVSKKFMKKGSKKVSKKFMKK [Peptide G11.25]	0.15	0.1	0.15	0.1	0.1	0.15
QRAVARAATRVARTGRARW [Peptide G13.6, QRAVARAATRVARTGRARW]	>10	7.7	2.8	1.65	7.48	>10
CSCC[C@@H](NC(=O)[C@@H](Cc1ccccc1)NC(=O)[C@@H](CCCCN)NC(=O)[C@@H](CCCCN)NC(=O)[C@@H](CO)NC(=O)[C@H](NC(=O)[C@@H](CCCCN)NC(=O)[C@@H](CCCCN)NC(=O)[C@@H](CO)NC(=O)CNC(=O)[C@@H](CCCCN)NC(=O)[C@@H](CCCCN)NC(=O)[C@@H](CCSC)NC(=O)[C@@H](Cc1ccccc1)NC(=O)[C@@H](CCCCN)NC(=O)[C@@H](CCCCN)NC(=O)[C@@H](CO)NC(=O)[C@H](NC(=O)[C@@H](CCCCN)NC(=O)[C@@H](CCCCN)NC(=O)[C@@H](CO)NC(=O)CNC(=O)[C@@H](CCCCN)NC(=O)[C@@H](CCCCN)NC(=O)[C@@H](CCSC)NC(=O)[C@@H](Cc1ccccc1)NC(=O)[C@@H](CCCCN)NC(=O)[C@@H](CCCCN)NC(=O)[C@@H](CO)NC(=O)[C@H](NC(=O)[C@@H](CCCCN)NC(=O)[C@H](N)CCCCN)C(C)C)C(C)C)C(C)C)C(=O)N[C@H](CCCCN)C(=O)N[C@H](CCCCN)C(=O)O [Peptide G11.55, kkvskkfmkkgskkvskkfmkkgskkvskkfmkk] (H-[dK][dK][dV][dS][dK][dK][dF][dM][dK][dK]G[dS][dK][dK][dV][dS][dK][dK][dF][dM][dK][dK]G[dS][dK][dK][dV][dS][dK][dK][dF][dM][dK][dK]-OH; N-terminus and C-terminus assumed)	0.2	0.1	4	0.98	> 10	>10
RRPSRRFPRR [Peptide G11.37, RRPSRRFPRR]	>10	> 10	2.4	0.45	1.68	2.9
VHKRRVSRRFMRRLGH [Peptide G11.42, VHKRRVSRRFMRRLGH]	0.4	0.11	0.35	0.21	1.35	2.8
GRSRWRDVSRRFMRR [Peptide G14.2, GRSRWRDVSRRFMRR]	2.8	1.75	1.45	0.85	0.86	1.4
RRLLRRLLRRGSRRLLRRLLRR [Peptide G11.23]	0.7	0.41	0.7	0.45	0.45	0.71
CSCC[C@@H](NC(=O)[C@@H](Cc1ccccc1)NC(=O)[C@@H](CCCNC(=N)N)NC(=O)[C@@H](CCCNC(=N)N)NC(=O)[C@@H](CO)NC(=O)[C@H](NC(=O)[C@@H](CCCNC(=N)N)NC(=O)[C@H](N)CCCNC(=N)N)C(C)C)C(=O)N[C@H](CCCNC(=N)N)C(=O)N[C@H](CCCNC(=N)N)C(=O)O [Peptide G11.24, rrvsrrfmrr] (H-[dR][dR][dV][dS][dR][dR][dF][dM][dR][dR]-OH; N-terminus and C-terminus assumed)	>10	> 10	1.4	0.85	0.85	1.4
SDVARRFMRRQSRVIRRLV [Peptide G12.22, SDVARRFMRRQSRVIRRLV]	5.7	3.5	1.38	0.87	0.89	1.39
QRSVSRPPTRVSRPPRSRW [Peptide G13.13, QRSVSRPPTRVSRPPRSRW]	>10	> 10	5.1	0.38	1.4	>10
CC(C)[C@H](NC(=O)[C@H](CO)NC(=O)[C@H](CCCNC(=N)N)NC(=O)[C@@H](N)CCC(N)=O)C(=O)N[C@@H](CO)C(=O)N[C@@H](CCCNC(=N)N)C(=O)N[C@H](C)C(=O)N[C@H](C)C(=O)N[C@H](C(=O)N[C@@H](CCCNC(=N)N)C(=O)N[C@H](C(=O)N[C@@H](CO)C(=O)N[C@@H](CCCNC(=N)N)C(=O)N[C@H](C(=O)NCC(=O)N[C@@H](CCCNC(=N)N)C(=O)N[C@@H](CO)C(=O)N[C@@H](CCCNC(=N)N)C(=O)N[C@@H](Cc1c[nH]c2ccccc12)C(=O)O)[C@@H](C)O)C(C)C)[C@@H](C)O [Peptide G13.7, QRSVSRaaTRVSRTGRSRW] (H-QRSVSR[dA][dA]TRVSRTGRSRW-OH; N-terminus and C-terminus assumed)	>10	7.7	5.7	2.85	> 10	>10
CSCC[C@H](NC(=O)[C@H](Cc1ccccc1)NC(=O)[C@H](CCCNC(=N)N)NC(=O)[C@H](CCCNC(=N)N)NC(=O)[C@H](CO)NC(=O)[C@@H](NC(=O)[C@H](CCCNC(=N)N)NC(=O)[C@H](CCCNC(=N)N)NC(=O)[C@H](CS)NC(=O)[C@H](CS)NC(=O)[C@H](CCCNC(=N)N)NC(=O)[C@H](CCCNC(=N)N)NC(=O)[C@@H](NC(=O)[C@H](CO)NC(=O)[C@H](CCCNC(=N)N)NC(=O)[C@H](CCCNC(=N)N)NC(=O)[C@H](Cc1ccccc1)NC(=O)[C@H](CCSC)NC(=O)[C@H](CCCNC(=N)N)NC(=O)[C@@H](N)CCCNC(=N)N)C(C)C)C(C)C)C(=O)N[C@@H](CCCNC(=N)N)C(=O)N[C@@H](CCCNC(=N)N)C(=O)O [Peptide G11.48] (H-RRMFRRSVRRCCRRVSRRFMRR-OH; N-terminus and C-terminus assumed)	5.7	3.55	>10	2.1	> 10	>10
RRVSRRFMRRYRSRVIRGLV [Peptide G12.7]	0.35	0.21	0.71	0.25	0.22	0.35
RDVSRRFMRRQSRVIQGLV [Peptide G12.3, RDVSRRFMRRQSRVIQGLV]	>10	7.7	5.7	3.51	3.5	5.5
CSCC[C@@H]1NC(=O)[C@H](Cc2ccccc2)NC(=O)[C@H](CCCCN)NC(=O)[C@H](CCCCN)NC(=O)[C@H](CO)NC(=O)[C@H](C(C)C)NC(=O)[C@H](CCCCN)NC(=O)[C@H](CCCCN)NC(=O)[C@@H](N)CSSC[C@@H](C(N)=O)NC(=O)[C@H](CCCCN)NC(=O)[C@H](CCCCN)NC(=O)[C@H](CCSC)NC(=O)[C@H](Cc2ccccc2)NC(=O)[C@H](CCCCN)NC(=O)[C@H](CCCCN)NC(=O)[C@H](CO)NC(=O)[C@H](C(C)C)NC(=O)[C@H](CCCCN)NC(=O)[C@H](CCCCN)NC(=O)[C@H](CO)NC(=O)CNC(=O)[C@H](CCCCN)NC(=O)[C@H](CCCCN)NC1=O [G11.31 CYC] (H-CKKVSKKFMKKGSKKVSKKFMKKC-NH2; disulfide 1-24; N-terminus assumed)	0.7	0.4	0.61	0.42	0.41	0.7
QRSVSRAPTRVSRTGRSRW [Peptide G13.8, QRSVSRAPTRVSRTGRSRW]	>10	7.7	5.7	3.3	> 10	>10
KKVSKKFMKK [Peptide G11.8, KKVSKKFMKK]	>10	> 10	>10	> 10	> 10	>10
RRLLRRLLRR [Peptide G11.20, RRLLRRLLRR]	>10	> 10	>10	7.7	7.69	>10
